In paper PMC6268135, “Synthesis and 5α-Reductase Inhibitory Activity of C21 Steroids Having 1,4-diene or 4,6-diene 20-ones and 4-Azasteroid 20-Oximes” (Molecules, 2011):
Read-outs that look alike come from different tables or passages of the source.

Experiments:
[1] = system: testosterone 5α-reductase prepared from rat prostates; assay: Testosterone 5α-reductase assay ([1,2,6,7-3H]testosterone as substrate);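 also: conversion of tritiated testosterone to 5α-dihydrotestosterone, separated by TLC and scintillation counted, relative to enzyme control without test sample after subtracting substrate blank without enzyme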
Procedure: Since the rat prostate extracts for measuring testosterone 5α-reductase inhibition were used in a neutral pH buffer, both isozymes were assayed in this study due to differences in its biochemical properties.
The enzyme suspension of testosterone 5α-reductase was prepared from the homogenate of the ventral prostate of male Sprague-Dawley rats using the methods previously reported [32]. Testosterone 5α-reductase inhibition was measured according to the methods previously reported [32]. A brief description follows: Sprague-Dawley male rats 7-8 weeks old were sacrificed by diethyl ether, and the ventral prostates were excised and minced with a pair of scissors. The prostates were homogenized with a glass-glass homogenizer in medium A (0.32 M sucrose, 0.1 mM dithiothreitol and 20 mM sodium phosphate, pH 6.5) to about 20% (w/v). The homogenate was filtered over 8 layers of surgical gauze, and centrifuged at 3,000 × g for 15 min. The resulting pellets were resuspended in medium A to about 25% (w/v) by triturating the suspension sequentially through an 18-gauge and then a 20-gauge needle. The assay mixture containing the test sample in ethanol (10 μL), reaction solution [525 μL, 1 mM dithiothreitol, 40 mM sodium phosphate (pH 6.5), 50 µM NADPH and 2.2 mM [1,2,6,7-^3H]testosterone, 3.15-3.89 TBq/mmol, PerkinElmer (Waltham, MA, USA)] and the enzyme suspension prepared above (40 μL), was incubated at 37°C for 1 h. After extraction with ethyl acetate (1 mL), a sample of the ethyl acetate phase (50 μL) was chromatographed on a silica plastic sheet (Kieselgel 60 F254, Merck KGaA (Darmstadt, Germany)) using the developing solvent system ethyl acetate-cyclohexane (1:1). Each of the testosterone and 5α-dihydrotestosterone areas was cut from the sheet. The ^3H radioactivity of each fragment was counted in 5 mL of Aquasol-2 (PerkinElmer) with a liquid scintillation counter [LS 6500, Beckman Coulter (Brea, CA, USA)]. Testosterone 5α-reductase inhibitory activity was calculated as follows:
where DHT and T are the ^3H radioactivity recovered in the areas of 5α-dihydrotestosterone and testosterone, respectively. rsample and rcontrol are reaction rates of the test sample and the enzyme control in which reaction rates are measured in the presence and absence of test sample, respectively, and rblank is reaction rate of the substrate blank in which reaction rate is measured in the absence of test sample and enzyme suspension. IC50 was calculated from the inhibitory activity values at several concentrations using linear regression analysis. Each enzyme reaction was carried out in duplicate.

[2] = rat prostatic testosterone 5α-reductase
[3] = read-out: IC50 (testosterone 5α-reductase inhibitory activity), rat ventral prostate enzyme suspension, pH 6.5, 37°C, 1 h, both type 1 and type 2 isozymes
[4] = read-out: IC50 (5α-reductase inhibitory activity), rat prostatic testosterone 5α-reductase

Structure (SMILES)	melting point [°C]	IC50 [1, 3] [nM]	IC50 [1, 4] [nM]	5α-reductase inhibitory activity in words [1, 2]
CC(=O)[C@H]1CC[C@H]2[C@@H]3C=CC4=CC(=O)[C@@H]5O[C@@H]5[C@]4(C)[C@H]3CC[C@]12C [Compound 10, 1α,2α-Epoxypregna-4,6-diene-3,20-dione]	183 to 185	> 10000		no inhibitory activity
CC(=O)O[C@H]1CC[C@@]2(C)C(=CCC3C2CC[C@@]2(C)C3CC[C@@H]2C(C)=NO)C1 (stereo partly shown) [Compound 16]		> 10000		no inhibition
CC(=O)[C@H]1CC[C@H]2[C@@H]3C=CC4=CC(=O)C=C[C@]4(C)[C@H]3CC[C@]12C [Compound 9, 1,4,6-Pregnatriene-3,20-dione]	144 to 146	760		moderate inhibition
CC(=NO)C1CCC2C3CC4OC45CC(O)CCC5(C)C3CCC12C (stereo not shown) [Compound 18]		> 10000		no inhibition
CC(=O)C1CCC2C3CC4OC45CC(O)CCC5(C)C3CCC12C (stereo not shown) [Compound 17]		> 10000		no inhibition
CC(=NO)[C@H]1CCC2C3CCC4=CC(=O)C=C[C@]4(C)C3CC[C@@]21C (stereo partly shown) [Compound 22, 1,4-Pregnadiene-20-oxime]		140		
CC(=O)[C@H]1CC[C@H]2[C@@H]3[C@@H]4O[C@@H]4C4=CC(=O)C=C[C@]4(C)[C@H]3CC[C@]12C [Compound 13, 6α,7α-Epoxypregna-1,4-diene-3,20-dione]	206 to 208	> 10000		no inhibitory activity
CC(=NO)[C@H]1CCC2C3CCC4=CC(=O)CC[C@]4(C)C3CC[C@@]21C (stereo partly shown) [Compound 20]		14		
CC(=O)O[C@H]1CC[C@@]2(C)C(=CCC3C2CC[C@@]2(C)C3CC[C@@H]2C(C)=O)C1 (stereo partly drawn) [Compound 15, 3β-Acetoxypregnenolone]		> 10000		no inhibition

The next lines start with results.

melting point [°C]	IC50 [1, 3] [nM]	IC50 [1, 4] [nM]	Structure (SMILES)	5α-reductase inhibitory activity in words [1, 2]
174 to 176	14		CC(=O)[C@H]1CC[C@H]2[C@@H]3CCC4NC(=O)C=C[C@]4(C)[C@H]3CC[C@]12C (stereo partly shown) [Compound 7, 4-Aza-1-pregnene-3,20-dione]	potent inhibition
228 to 230			CC(=NO)[C@H]1CC[C@H]2[C@@H]3C=CC4=CC(=O)[C@@H]5O[C@@H]5[C@]4(C)[C@H]3CC[C@]12C	
194 to 196	10	10	CC(=NO)[C@H]1CC[C@H]2[C@@H]3CCC4NC(=O)CC[C@]4(C)[C@H]3CC[C@]12C (stereo partly shown) [Compound 6, 4-Aza-pregnane-3,20-dione-20-oxime]	potent inhibition
245 to 247			CC(=NO)[C@H]1CC[C@H]2[C@@H]3[C@@H]4O[C@@H]4C4=CC(=O)C=C[C@]4(C)[C@H]3CC[C@]12C	
	6100		CC(=O)[C@H]1CC[C@H]2[C@@H]3CCC4NC(=O)CC[C@]4(C)[C@H]3CC[C@]12C (stereo partly shown) [Compound 5, 4-Aza-pregnane-3,20-dione]	potent inhibition
176 to 178	> 10000		CC(=O)[C@H]1CCC2C3CCC(=O)[C@](C)(CCC(=O)O)C3CC[C@@]21C (stereo partly shown) [Compound 2, 5,20-Dioxo-A-nor-3,5-secopregnane-3-oic acid]	only a weak inhibitory activity
208 to 210	26	26	CC(=NO)[C@H]1CC[C@H]2[C@@H]3CC=C4NC(=O)CC[C@]4(C)[C@H]3CC[C@]12C [Compound 4, 4-Aza-5-pregnene-3,20-dione-20-oxime]	potent inhibition
	1.2	1.2	CC(C)(C)NC(=O)[C@H]1CC[C@H]2[C@@H]3CC[C@H]4NC(=O)C=C[C@]4(C)[C@H]3CC[C@]12C [Finasteride, finasteride, reference compound]	
235 to 237	11	11	CC(=NO)[C@H]1CC[C@H]2[C@@H]3CCC4NC(=O)C=C[C@]4(C)[C@H]3CC[C@]12C (stereo partly shown) [Compound 8, 4-Aza-1-pregnene-3,20-dione-20-oxime]	potent inhibition
158 to 160	2300		CC(=O)[C@H]1CC[C@H]2[C@@H]3CC=C4NC(=O)CC[C@]4(C)[C@H]3CC[C@]12C [Compound 3, 4-Aza-5-pregnene-3,20-dione]	moderate inhibition
	6.5	6.5	CC(=O)[C@H]1CC[C@H]2[C@@H]3CCC4=CC(=O)CC[C@]4(C)[C@H]3CC[C@]12C [Compound 1, 4-pregnene-3,20-dione, reference compound]	
	2100		CC(=NO)[C@H]1CCC2C3CCC(=O)[C@](C)(CCC(=O)O)C3CC[C@@]21C (stereo partly shown) [Compound 21]	
